Measured values from paper PMC3072440 (Chemical research in toxicology, 2010).
Where two headings read alike, the source gives them in different places.

Tests used:
human P450 1A1 = biological target: T1, human P450 1A1 (Homo sapiens, UniProt P04798); test: Inhibition of P450 1A1-dependent EROD activity; assay type: biochemical
T1 sequence (P04798 1-512): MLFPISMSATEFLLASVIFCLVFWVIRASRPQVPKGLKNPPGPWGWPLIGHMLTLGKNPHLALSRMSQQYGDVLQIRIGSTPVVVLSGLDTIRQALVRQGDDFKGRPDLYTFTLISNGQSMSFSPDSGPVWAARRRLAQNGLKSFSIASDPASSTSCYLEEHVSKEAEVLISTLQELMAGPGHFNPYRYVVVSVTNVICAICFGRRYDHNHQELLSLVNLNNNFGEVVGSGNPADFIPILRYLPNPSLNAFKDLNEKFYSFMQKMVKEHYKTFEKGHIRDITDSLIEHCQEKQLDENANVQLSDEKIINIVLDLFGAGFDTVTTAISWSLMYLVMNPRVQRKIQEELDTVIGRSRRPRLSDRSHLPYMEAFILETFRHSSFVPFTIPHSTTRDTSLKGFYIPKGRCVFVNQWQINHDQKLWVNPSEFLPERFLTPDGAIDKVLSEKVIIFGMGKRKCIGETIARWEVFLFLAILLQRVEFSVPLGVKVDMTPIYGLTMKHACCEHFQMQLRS

human P450 3A4 [1] = biological target: T2, human P450 3A4 (Homo sapiens, UniProt P08684); test: Spectral binding titration with purified P450 3A4; settings: decreases in α and β bands monitored; up to 100 µM
CYP3A4 (P450 3A4) = CYP3A4 (P450 3A4) (Homo sapiens, UniProt P08684); test: Inhibition of P450 3A4-dependent midazolam 4-hydroxylation; settings: human, pH 7.4, probe midazolam (0.1 mM), 4-hydroxylation
human P450 2C9 = human P450 2C9 (Homo sapiens, UniProt P11712); test: Inhibition of P450 2C9-dependent flurbiprofen 4’-hydroxylation
human P450 3A4 [2] = biological target: T2, human P450 3A4
human P450 3A4 [3] = biological target: T2, human P450 3A4; remark: listed apart in the source
human P450 3A4 [4] = biological target: T2, human P450 3A4; test: Effect on P450 3A4-catalyzed midazolam 1’-hydroxylation

T2 sequence (P08684 whole entry): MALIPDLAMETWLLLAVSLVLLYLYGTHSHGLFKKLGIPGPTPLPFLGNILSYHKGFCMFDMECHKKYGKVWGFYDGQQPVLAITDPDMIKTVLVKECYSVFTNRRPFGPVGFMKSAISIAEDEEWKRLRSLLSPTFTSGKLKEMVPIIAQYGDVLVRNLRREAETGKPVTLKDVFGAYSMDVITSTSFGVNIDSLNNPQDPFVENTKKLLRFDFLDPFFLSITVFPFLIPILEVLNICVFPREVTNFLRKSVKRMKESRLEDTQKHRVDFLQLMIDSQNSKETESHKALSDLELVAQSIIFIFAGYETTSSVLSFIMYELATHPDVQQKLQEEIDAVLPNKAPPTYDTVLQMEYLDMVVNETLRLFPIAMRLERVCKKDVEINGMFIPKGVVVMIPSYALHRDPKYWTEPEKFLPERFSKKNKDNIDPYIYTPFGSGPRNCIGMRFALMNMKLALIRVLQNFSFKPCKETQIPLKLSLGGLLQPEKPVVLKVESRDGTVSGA
Chain of CYP3A4 (P450 3A4) (P08684 whole entry): as above
Chain of human P450 2C9 (P11712 whole entry): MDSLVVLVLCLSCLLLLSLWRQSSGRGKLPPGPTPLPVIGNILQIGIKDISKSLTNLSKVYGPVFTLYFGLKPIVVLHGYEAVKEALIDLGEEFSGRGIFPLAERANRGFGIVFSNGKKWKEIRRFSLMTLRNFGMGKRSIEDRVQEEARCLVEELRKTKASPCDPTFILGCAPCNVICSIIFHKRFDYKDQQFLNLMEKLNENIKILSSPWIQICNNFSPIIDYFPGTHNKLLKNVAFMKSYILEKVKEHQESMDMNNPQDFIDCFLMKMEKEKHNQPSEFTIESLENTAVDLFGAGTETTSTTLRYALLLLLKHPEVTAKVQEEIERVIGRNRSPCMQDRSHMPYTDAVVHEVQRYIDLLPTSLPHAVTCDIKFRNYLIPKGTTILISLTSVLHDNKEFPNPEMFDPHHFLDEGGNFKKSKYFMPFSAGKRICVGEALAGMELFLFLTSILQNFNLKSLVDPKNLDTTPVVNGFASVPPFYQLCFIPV

Row | SMILES | IC50 (human P450 1A1) [µM] | spectral change / Type I binding spectra with P450 3A4, in words (human P450 3A4 [1]) | IC50 (CYP3A4 (P450 3A4)) [µM] | inhibition of P450 2C9 flurbiprofen 4’-hydroxylation, in words (human P450 2C9) | inhibition of P450 3A4 midazolam 4-hydroxylation, in words (human P450 3A4 [2]) | effect on formation of 1’-hydroxymidazolam by P450 3A4, in words (human P450 3A4 [3]) | effect on formation of 1’-hydroxymidazolam by P450 3A4, in words (human P450 3A4 [4])
1 | COc1cccc(-c2cc(=O)c3c(O)cc(O)cc3o2)c1 [3’M57DHF, 3’-methoxy-5,7-dihydroxyflavone] | 5.8 | induced spectral changes | 16 | strong inhibitors | – | – | –
2 | O=c1cc(-c2ccc(O)cc2)oc2cc(O)cc(O)c12 [4’57THF, 4’5,7-trihydroxyflavone] | – | – | – | – | significantly inhibited | slightly activated | –
3 | O=C1CC(c2ccccc2)Oc2ccccc21 (centres unmarked) [flavanone] | – | – | – | – | inhibited the formation of 4-hydroxymidazolam | – | enhanced the formation of 1’-hydroxymidazolam
